{
  "source": "patent US6218378A",
  "about": "“Anti-tumor agents comprising pyridyl-substituted metal-diphosphine complex” (priority 1994, dated 2001)",
  "key": {"human tumour cell lines": {"test_system": "human tumour cell lines", "test": "selectivity of cytotoxicity over all cell lines evaluated (Tables 1 and 2)", "assay_type": "cell-based", "from_the_text": "(§1) The origins of the human melanoma cell line MM96 has been described in Whitehead et al., 1973, Pigment Cell 1 383-389. The cell line JAM is described in Ward et al., 1987, Cancer Res. 47 2662-2667. The origin of the ovarian tumour line CI-80-13S has been described in Bertoncello et al., 1985, Aust. J. Exp. Biol. Med. Sci. 63 241-243. The origin of the cervical carcinoma cell line HeLa has been described in Maynard et al., 1986, Cancer Res. 46 5009-5093. The subclone HeLa-S1a was derived by stably transfecting HeLa with PAI-2 cDNA described in Schleuning et al., 1987, Mol. Cell. Biol. 7 4564-4567 in the sense orientation under the control of the cyto-megalovirus (CMV) promoter. The stably infected subclone was isolated following G418 selection and expression of the PAI-2 transgene characterised by immunoblot analysis and quantitated by ELISA. All of these cell lines have been used before for carrying out cell survival assays referred to in FIGS. 1-4. Cells were cultured at 37° in 5% CO2 /air in Roswell Park Memorial Institute medium 1640 containing 5% foetal calf serum, 100 μg/ml streptomycin, 100 IU/ml penicillin, 1 mM pyruvate, 50 μM nicotinamide and 3 mM HEPES.\n(§2) Cells were seeded in microtitre plates (lowest number for fastest growing cells: 1000 HeLa, 2000 MM96, […] CI-80-13S cells per 6 mm well in 100 μl), normally but not necessarily allowed to attach overnight, then 5 dilutions of the drug were added to duplicate wells. After an overnight incubation to equilibrate the pH, the lids were quickly taped around the edge to prevent evaporation. The plates were incubated for 5-7 days, until the controls were nearly confluent. Cell growth/morphology was scored at each dose visually (inverted microscope). The medium was then replaced by 50 μl fresh medium containing 2 u/Ci/ml [methyl-3H]-thymidine (5 Ci/mmol; Radiochemical Centre, Amersham, Bucks., U.K.) and incubated for 2-4 hr. The cells were washed with PBS (0.1 M NaCl, 50 mM phosphate, pH 7.2), detached with 100 μl of PBS containing 0.2 mg/ml trypsin and 10 mM EDTA, and washed onto a glass fibre GF/a filter mat with water using a cell harvester. Later, wells were checked under the microscope to ensure complete detachment and washout. Radioactivity was determined in an LKB Beta Plate counter and the results plotted as log % control cpm versus dose. The ID50 (dose required to give 50% survival) was interpolated from this survival curve.\n(§3) The sensitive CH1 cell line was established from a patient with drug-sensitive disease and its resistant variant (CH1-cisR) was generated by prolonged in vitro exposure to cisplatin during which it acquired more efficient DNA repair as described in Kelland et al., 1992, Cancer Research 52 3857-3864. The sensitive 41M cell line was also established from a patient with a sensitive tumor and its resistant variant (41M-cisR) was generated in the same way but acquired decreased uptake across the cell membrane (Kelland et al., 1992, supra). The intrinsically-resistant SKOV-3 ovarian carcinoma cell line has high glutathione levels as described in Mistry et al., 1991, Brit. J. Cancer 64 215-220 and reduced levels of bi-functional cisplatin-DNA lesions as described in McKeage et al., 1994, Brit. J. Cancer 69 1-7. The characteristics of the cell line pairs CH1/CH1 cisR, 41M/41McisR and 41M/SKOV3 are described in Table 3.\nThe cytotoxicity assay used sulforhodamine B which stains the basic amino acids. Cells (5000 or 2500 for SKOV-3) were seeded into 96 well microtitre plates (Linbro, Flow Laboratories Inc., USA) in 0.1 ml of medium. After an overnight incubation, the metal phosphine compounds were dissolved in 0.9% NaCl or ethanol and diluted with medium, were added at concentrations ranging from 0.005 to 50 μM to quadruplicate wells. After 96 hrs incubation, the medium was removed and cells were fixed in 0.2 ml of cold 10% (w/v) trichloroacetic acid (May & Baker Ltd., Dagenham, England) for 30 mins at 4° C. The plates were washed five times with tap water. […]"}, "[1]": {"test_system": "41M, 41M-cisR, SKOV-3, CH1, CH1-cisR", "test": "growth inhibition of cisplatin-sensitive and -resistant ovarian cancer cell lines (Table 2, FIG. 5)", "assay_type": "cell-based, human", "from_the_text": "as §3\nThe cytotoxicity assay used sulforhodamine B which stains the basic amino acids. Cells (5000 or 2500 for SKOV-3) were seeded into 96 well microtitre plates (Linbro, Flow Laboratories Inc., USA) in 0.1 ml of medium. After an overnight incubation, the metal phosphine compounds were dissolved in 0.9% NaCl or ethanol and diluted with medium, were added at concentrations ranging from 0.005 to 50 μM to quadruplicate wells. After 96 hrs incubation, the medium was removed and cells were fixed in 0.2 ml of cold 10% (w/v) trichloroacetic acid (May & Baker Ltd., Dagenham, England) for 30 mins at 4° C. The plates were washed five times with tap water. Then 0.1 ml of 0.4% (w/v) sulforhodamine B (Sigma Chemical Co., St. Louis, USA) dissolved in 1% acetic acid (Ajax Chemicals, Australia) was added to the wells and left to stand at room temperature for 15 mins. The plates were then washed five times with 1% acetic acid and left to dry overnight. The next morning, 0.1 ml of 10 mM Tris buffer (Sigma Chemical Co., St. Louis, USA) was then added to each plate to solubilise the dye. Absorbance was read at a wavelength of 570 nm using a 96 well plate reader Dynatech MR 5000 plate reader. Absorbance of treatment cells was expressed as a percentage of positive (drug-free) controls. The results were plotted as percentage growth versus drug concentration. The drug concentration resulting in a 50% growth inhibition was termed the IC50. The passage numbers used for the cytotoxicity assay from each cell line were, CH1 passages 50-58, CH1 cis-R passages 77-83, 41M passages 50-63, 41M cisR 81-92 and SKOV-3 passages 106-128."}, "P388 leukaemia": {"test_system": "P388 leukaemia", "conditions": "i.p. P388 leukaemia; Berners-Price et al. 1990; cited from earlier work"}, "[2]": {"test_system": "M5076 Reticulum Cell Sarcoma", "conditions": "Berners-Price et al. 1990; cited from earlier work"}, "CI-80-13S": {"test_system": "CI-80-13S", "test": "cell survival after drug treatment ([methyl-3H]-thymidine)", "assay_type": "cell-based, human", "from_the_text": "(§4) In FIGS. 1-4 and Table 1, reference is made to the cell lines HeLa, HeLa-S1a, JAM, CI-80-13S and MM96.\nas §1, §2"}, "MM96": {"test_system": "MM96", "test": "cell survival after drug treatment ([methyl-3H]-thymidine)", "assay_type": "cell-based, human", "from_the_text": "as §4, §1, §2"}, "HeLa": {"test_system": "HeLa", "test": "cell survival after drug treatment ([methyl-3H]-thymidine)", "assay_type": "cell-based, human", "from_the_text": "as §4, §1, §2"}},
  "data": [
    {"smiles": "[Cl-].c1cc([P+]2(c3ccncc3)CC[P+](c3ccncc3)(c3ccncc3)[Au-3]23[P+](c2ccncc2)(c2ccncc2)CC[P+]3(c2ccncc2)c2ccncc2)ccn1", "note": "[[Au(d4pype)2]Cl]", "values": [
      {"measurement": "number of cell lines against which cytotoxic", "setting": "human tumour cell lines", "result": "cytotoxic to only four of the nine cell-lines tested"},
      {"measurement": "degree of selectivity", "setting": "human tumour cell lines; Tables 1 and 2", "result": "the greatest selectivity"},
      {"measurement": "selectivity and cytotoxicity in ovarian cancer cell-lines (FIG. 5)", "setting": "[1]", "result": "exhibits the greatest selectivity killing only the CH1/CH1 cisR pair"},
      {"measurement": "activity in mice", "setting": "P388 leukaemia", "result": "inactive"},
      {"measurement": "activity in mice", "setting": "[2]", "result": "inactive"},
      {"measurement": "cytotoxicity (FIGS. 1 and 2)", "setting": "CI-80-13S; CI-80-13S ovarian in vitro", "result": "selectively cytotoxic"},
      {"measurement": "IC50", "setting": "CI-80-13S; CI-80-13S, mean ± SD or individual values when n<3, 5-7 days", "result": "0.32 ± 0.15", "unit": "µM"},
      {"measurement": "IC50", "setting": "MM96; MM96L, mean ± SD or individual values when n<3, 5-7 days", "result": "> 10", "unit": "µM"},
      {"measurement": "cytotoxicity (FIGS. 1 and 2)", "setting": "MM96; MM96 melanoma in vitro", "result": "inactive"},
      {"measurement": "cytotoxicity (FIGS. 1 and 2)", "setting": "HeLa; HeLa cervical carcinoma in vitro", "result": "inactive"},
      {"measurement": "IC50", "setting": "HeLa; HeLa, mean ± SD or individual values when n<3, 5-7 days", "result": "> 10", "unit": "µM"}
    ]}
  ]
}
